This assay has as its target T1, human GLP-1R (Homo sapiens, UniProt P43220).
T1 construct: host or cells: HEK293
Description: GLP-1R cAMP assay (Example B1a, HTRF, 30 min at room temperature). Conditions: cAMP accumulation in HEK293 expressing human GLP-1R, no BETP, 30 min room temperature (Method B1a, compounds ID 1-609), Table 1; read-out: EC50. The format is cell-based. The protocol:
Assay was carried out with HEK293 expressing human GLP-1R using HTRF assay, developed by Wuxi Apptec. The method is a competitive assay between native cAMP produced by the cells and exogenous cAMP labeled with a proprietary dye d2. The tracer binding is visualized by a mAb anti-cAMP labeled with Cryptate. The signal (i.e. energy transfer) is inversely proportional to the concentration of CAMP in either standard or experimental sample. Compounds were tested in the absence of BETP. Ten microliter of cell suspension in assay buffer (5 mM HEPES, 500 μM IBMX, 0.1% BSA) were added to each well (1,000 cells per well) in a low volume 384-well plate for the assay. Serially diluted compounds were added in 100 nL volume to duplicate wells, by Labcyte Echo. GLP-1 (7-37) was used as positive control. Assay plate was incubated for 30 minutes at room temperature. Stock of cAMP Detection Solution was prepared by mixing 38 parts of cAMP lysis buffer, 1 part of cAMP-D2, 1 part of anti-cAMP cryptate reagent (Cisbio #62AM4PEJ). Ten microliter of the cAMP Detection Solution was added to each well, and the assay plate was incubated for 1 hour at room temperature in the dark. Plates were read on Envision plate reader. The data were analyzed by ScreenUltra in Dotmatics, with % activation expressed using following formula: (Well data−negative control)/(postive control−negative control)*100. Dose response curves were plotted and EC50 values calculated by non-linear regression using 4-parameter fit.
T1 sequence (P43220 24-463): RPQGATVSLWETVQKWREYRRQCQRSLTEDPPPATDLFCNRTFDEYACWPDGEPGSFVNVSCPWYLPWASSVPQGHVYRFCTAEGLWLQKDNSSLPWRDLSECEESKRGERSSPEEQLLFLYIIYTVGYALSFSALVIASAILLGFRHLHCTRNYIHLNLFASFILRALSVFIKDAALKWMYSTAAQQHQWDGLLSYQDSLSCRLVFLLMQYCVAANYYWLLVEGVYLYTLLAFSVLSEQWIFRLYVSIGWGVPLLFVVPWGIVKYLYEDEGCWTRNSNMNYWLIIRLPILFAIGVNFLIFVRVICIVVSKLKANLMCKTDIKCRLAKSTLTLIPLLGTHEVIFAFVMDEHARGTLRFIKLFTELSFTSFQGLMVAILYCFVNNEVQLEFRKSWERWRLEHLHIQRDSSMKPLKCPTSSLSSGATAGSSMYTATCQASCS
Usually EC50 stands for the concentration needed to bring the measured effect to its halfway point. As for `Cc1cc(-n2nc3c(c2-n2ccn(-c4ccc5cnncc5c4)c2=O)[C@@H]2CC[C@H](C3)N2C(=O)c2cc3cc([C@H]4CCOC(C)(C)C4)ccc3n2[C@@]2(c3noc(=O)[nH]3)C[C@@H]2C)cc(C)c1F` [Compound 127, 3-((1S,2S)-1-(5-((S)-2,2-dimethyltetrahydro-2H-pyran-4-yl)-2-((4S,7R)-2-(4-fluoro-3,5-dimethylphenyl)-3-(2-oxo-3-(phthalazin-6-yl)-2,3-dihydro-1H-imidazol-1-yl)-2,4,5,6,7,8-hexahydro-4,7-epiminocyclohepta [c]pyrazole-9-carbonyl)-1H-indol-1-yl)-2-methylcyclopropyl)-1,2,4-oxadiazol-5 (4H)-one], the EC50 was found to be 0.381 µM.

Turning to `Cc1cc(-n2nc3c(c2-n2ccn(-c4ccc5c(cnn5C)c4F)c2=O)[C@@H]2CC[C@H](C3)N2C(=O)c2cc3cc([C@H]4CCOC(C)(C)C4)ccc3n2[C@@]2(c3nnn[nH]3)C[C@@H]2C)cc(C)c1F` [Compound 128, 1-((4S,7R)-9-(5-((S)-2,2-dimethyltetrahydro-2H-pyran-4-yl)-1-((1S,2S)-2-methyl-1-(1H-tetrazol-5-yl)cyclopropyl)-1H-indole-2-carbonyl)-2-(4-fluoro-3,5-dimethylphenyl)-2,4,5,6,7,8-hexahydro-4,7-epiminocyclohepta [c]pyrazol-3-yl)-3-(4-fluoro-1-methyl-1H-indazol-5-yl)-1H-imidazol-2 (3H)-one], the EC50 is 0.137 µM.

In the case of `Cc1cc(-n2nc3c(c2-n2ccn(-c4ccc5c(cnn5C)c4F)c2=O)[C@@H]2CC[C@H](C3)N2C(=O)c2cc3nc(C4CCOC(C)(C)C4)sc3cc2C2(c3noc(=O)[nH]3)CC2)cc(C)c1F` (stereo partly drawn) [Compound 129, 3-[1-[2-(2,2-dimethyltetrahydropyran-4-yl)-5-[(1S,8R)-4-(4-fluoro-3,5-dimethyl-phenyl)-3-[3-(4-fluoro-1-methyl-indazol-5-yl)-2-oxo-imidazol-1-yl]-4,5,11-triazatricyclo[6.2.1.02,6]undeca-2,5-diene-11-carbonyl]-1,3-benzothiazol-6-yl]cyclopropyl]-4H-1,2,4-oxadiazol-5-one], the EC50 was over 10 µM.

On to `Cc1cc(-n2nc3c(c2-n2ccn(-c4ccc5c(cnn5C)c4F)c2=O)[C@@H]2CC[C@H](C3)N2C(=O)c2nc3cc(C4CCOC(C)(C)C4)ccc3n2C2(c3noc(=O)[nH]3)CC2)cc(C)c1F` (stereo partly drawn) [Compound 130, 3-[1-[5-(2,2-dimethyltetrahydropyran-4-yl)-2-[(1S,8R)-4-(4-fluoro-3,5-dimethyl-phenyl)-3-[3-(4-fluoro-1-methyl-indazol-5-yl)-2-oxo-imidazol-1-yl]-4,5,11-triazatricyclo[6.2.1.02,6]undeca-2,5-diene-11-carbonyl]benzimidazol-1-yl]cyclopropyl]-4H-1,2,4-oxadiazol-5-one], for which the EC50 is over 10 µM.

`Cc1cc(-n2nc3c(c2-n2ccn(-c4ccc5nn(CCN6CCOCC6)cc5c4F)c2=O)[C@@H]2CC[C@H](C3)N2C(=O)c2cc3cc([C@H]4CCOC(C)(C)C4)ccc3n2[C@@]2(c3noc(=O)[nH]3)C[C@@H]2C)cc(C)c1F` [Compound 131, 3-[(1S,2S)-1-[5-[(4S)-2,2-dimethyltetrahydropyran-4-yl]-2-[(1S,8R)-4-(4-fluoro-3,5-dimethyl-phenyl)-3-[3-[4-fluoro-2-(2-morpholinoethyl)indazol-5-yl]-2-oxo-imidazol-1-yl]-4,5,11-triazatricyclo[6.2.1.02,6]undeca-2,5-diene-11-carbonyl]indol-1-yl]-2-methyl-cyclopropyl]-4H-1,2,4-oxadiazol-5-one]: the EC50 was over 10 µM.

On to `Cc1cc(-n2nc3c(c2-n2ccn(-c4ccc5c(cnn5C)c4F)c2=O)[C@@H]2CC[C@H](C3)N2C(=O)c2cc3sc(C4CCOC(C)(C)C4)nc3cc2C2(c3noc(=O)[nH]3)CC2)cc(C)c1F` (stereo partly drawn) [Compound 133, 3-[1-[2-(2,2-dimethyltetrahydropyran-4-yl)-6-[(1S,8R)-4-(4-fluoro-3,5-dimethyl-phenyl)-3-[3-(4-fluoro-1-methyl-indazol-5-yl)-2-oxo-imidazol-1-yl]-4,5,11-triazatricyclo[6.2.1.02,6]undeca-2,5-diene-11-carbonyl]-1,3-benzothiazol-5-yl]cyclopropyl]-4H-1,2,4-oxadiazol-5-one], for which the EC50 is over 10 µM.

With `Cc1cc(-n2nc3c(c2-n2ccn(-c4ccc5c(cnn5C)c4F)c2=O)[C@@H]2CC[C@H](C3)N2C(=O)c2cc3cc([C@H]4CCOC(C)(C)C4)ccc3n2C2(c3noc(=O)[nH]3)CCC2)cc(C)c1F` [Compound 134, 3-[1-[5-[(4S)-2,2-dimethyltetrahydropyran-4-yl]-2-[(1S,8R)-4-(4-fluoro-3,5-dimethyl-phenyl)-3-[3-(4-fluoro-1-methyl-indazol-5-yl)-2-oxo-imidazol-1-yl]-4,5,11-triazatricyclo[6.2.1.02,6]undeca-2,5-diene-11-carbonyl]indol-1-yl]cyclobutyl]-4H-1,2,4-oxadiazol-5-one], the EC50 was over 10 µM.

On to `Cc1cc(-n2nc3c(c2-n2ccn(-c4ccc5c(cnn5C)c4F)c2=O)[C@@H]2CC[C@H](C3)N2C(=O)c2cc3cc(C4CCOC5(C4)CN(C)C5)ccc3n2C2(c3noc(=O)[nH]3)CC2)cc(C)c1F` (stereo partly drawn) [Compound 135, 3-[1-[2-[(1S,8R)-4-(4-fluoro-3,5-dimethyl-phenyl)-3-[3-(4-fluoro-1-methyl-indazol-5-yl)-2-oxo-imidazol-1-yl]-4,5,11-triazatricyclo[6.2.1.02,6]undeca-2,5-diene-11-carbonyl]-5-(2-methyl-5-oxa-2-azaspiro[3.5]nonan-8-yl)indol-1-yl]cyclopropyl]-4H-1,2,4-oxadiazol-5-one], for which the EC50 is over 10 µM.

In the case of `Cc1cc(-n2nc3c(c2-n2ccn(-c4ccc5c(cnn5C)c4F)c2=O)[C@@H]2CC[C@H](C3)N2C(=O)c2cc3cc(C4CCOC5(COC5)C4)ccc3n2C2(c3noc(=O)[nH]3)CC2)cc(C)c1F` (stereo partly drawn) [Compound 136, 3-[1-[5-(2,5-dioxaspiro[3.5]nonan-8-yl)-2-[(1S,8R)-4-(4-fluoro-3,5-dimethyl-phenyl)-3-[3-(4-fluoro-1-methyl-indazol-5-yl)-2-oxo-imidazol-1-yl]-4,5,11-triazatricyclo[6.2.1.02,6]undeca-2,5-diene-11-carbonyl]indol-1-yl]cyclopropyl]-4H-1,2,4-oxadiazol-5-one], the EC50 is over 10 µM.

On to `Cc1cc(-n2nc3c(c2-n2ccn(-c4ccc5c(cnn5C)c4F)c2=O)[C@@H]2CC[C@H](C3)N2C(=O)c2cc3cc([C@H]4CCOC(C)(C)C4)ccc3n2[C@@]2(C#N)C[C@@H]2C)cc(C)c1F` [Compound 137, trans-(1S,2S)-1-[5-[(4S)-2,2-dimethyltetrahydropyran-4-yl]-2-[(1S,8R)-4-(4-fluoro-3,5-dimethyl-phenyl)-3-[3-(4-fluoro-1-methyl-indazol-5-yl)-2-oxo-imidazol-1-yl]-4,5,11-triazatricyclo[6.2.1.02,6]undeca-2,5-diene-11-carbonyl]indol-1-yl]-2-methyl-cyclopropanecarbonitrile], for which the EC50 was over 10 µM.

For the compound `Cc1cc(-n2nc3c(c2-n2ccn(-c4ccc5c(cnn5C)c4F)c2=O)[C@@H]2CC[C@H](C3)N2C(=O)c2cc3cc([C@H]4CCOC(C)(C)C4)ccc3n2[C@@]2(C(N)=O)C[C@@H]2C)cc(C)c1F` [Compound 138, cis-(1S,2S)-1-[5-[(4S)-2,2-dimethyltetrahydropyran-4-yl]-2-[(1S,8R)-4-(4-fluoro-3,5-dimethyl-phenyl)-3-[3-(4-fluoro-1-methyl-indazol-5-yl)-2-oxo-imidazol-1-yl]-4,5,11-triazatricyclo[6.2.1.02,6]undeca-2,5-diene-11-carbonyl]indol-1-yl]-2-methyl-cyclopropanecarboxamide], the EC50 was determined as 1.05 µM.

Source of the values: patent US12617783B2, “Heterocyclic GLP-1R agonists” (BIOMEA FUSION, INC., priority 2024, dated 2026).
